Experimental data taken from article PMC9182199, “Borylated 2,3,4,5-Tetrachlorophthalimide and Their 2,3,4,5-Tetrachlorobenzamide Analogues: Synthesis, Their Glycosidase Inhibition and Anticancer Properties in View to Boron Neutron Capture Therapy” (Molecules, 2022).

Assays:
[1] = tested on: porcine kidney trehalase; test: Glycosidase inhibition, laboratory 1: trehalase; assay type: biochemical; details: methanol
Source text: (§1) The enzymes α-glucosidase (from yeast), β-glucosidases (from almond and bovine liver), α-galactosidase (from coffee beans), β-galactosidase (from bovine liver), α-mannosidase (from Jack bean), β-mannosidase (from snail), α-L-rhamnosidase (from Penicillium decumbens), α-L-fucosidase (from bovine kidney), trehalase (from porcine kidney), β-glucuronidases (from E. coli and bovine liver), amyloglucosidase (from A. niger), para-nitrophenyl glycosides, and various disaccharides were purchased from Sigma-Aldrich Co (St Louis, MO, USA).
(§2) Brush border membranes were prepared from the rat small intestine according to the method of Kessler et al. and were assayed at pH 6.8 for rat intestinal maltase using maltose. For rat intestinal maltase, porcine kidney trehalase, and A. niger amyloglucosidase activities, the reaction mixture contained 25 mM maltose and the appropriate amount of enzyme, and the incubations were performed for 10–30 min at 37 °C. The reaction was stopped by heating at 100 °C for 3 min. After centrifugation (600× g; 10 min), the resulting reaction mixture was added to the Glucose CII-test Wako (Wako Pure Chemical Ind., Osaka, Japan). The absorbance at 505 nm was measured to determine the amount of the released D-glucose. Other glycosidase activities were determined using an appropriate para-nitrophenyl glycoside as substrate at the optimum pH of each enzyme. The reaction mixture contained 2 mM of the substrate and the appropriate amount of enzyme. The reaction was stopped by addition of 400 mM Na2CO3. The released para-nitrophenol was measured spectrometrically at 400 nm. All reactions run in methanol.

[2] = tested on: U87; test: MTT cell growth inhibition: U87; assay type: cell-based; details: U87 glioblastoma, 25 µM, 72 h, MTT
Method: (§3) All test agents were prepared as stock solutions (20 mM) in dimethyl sulfoxide (DMSO) and stored at −20 °C. Cell lines used in the study included HT29 (colorectal carcinoma); U87, SJ-G2, (glioblastoma); MCF-7, (breast carcinoma); A2780 (ovarian carcinoma); H460 (lung carcinoma); A431 (skin carcinoma); Du145 (prostate carcinoma); BE2-C (neuroblastoma); MiaPaCa-2 (pancreatic carcinoma); and SMA560 (spontaneous murine astrocytoma), together with the one non-tumour-derived normal breast cell line (MCF10A). All cell lines were incubated in a humidified atmosphere 5% CO2 at 37 °C. The cancer cell lines were maintained in Dulbecco’s modified Eagle’s medium (DMEM; Sigma, Australia) supplemented with foetal bovine serum (10%), sodium pyruvate (10 mM), penicillin (100 IUmL^−1), streptomycin (100 µg mL^−1) and L-glutamine (2 mM).
(§4) Growth inhibition was determined by plating cells in duplicate in medium (100 µL) at a density of 2500–4000 cells per well in 96-well plates. On day 0 (24 h after plating), when the cells were in logarithmic growth, medium (100 µL) with or without the test agent was added to each well. After 72 h drug exposure, growth inhibitory effects were evaluated using the MTT (3-(4,5-dimethyltiazol-2-yl)-2,5-diphenyltetrazolium bromide) assay and absorbance read at 540 nm. The percentage growth inhibition was calculated at a fixed concentration of 25 µM, based on the difference between the optical density values on day 0 and those at the end of drug exposure. Each data point is the mean ± the standard error of the mean (SEM) calculated from three replicates which were performed on separate occasions and separate cell line passages.

[3] = biological target: T1, coffee beans α-galactosidase (Coffea arabica, UniProt Q42656); test: Glycosidase inhibition, laboratory 1: coffee beans α-galactosidase; assay type: biochemical; details: methanol
T1 construct: purchased Sigma-Aldrich Co
Source text: as §1, §2

[4] = biological target: T2, bovine kidney α-L-fucosidase (Bos taurus, UniProt Q2KIM0); test: Glycosidase inhibition, laboratory 1: α-L-fucosidase; assay type: biochemical; details: methanol
T2 construct: purchased Sigma-Aldrich Co
T2 sequence (Q2KIM0 23-468): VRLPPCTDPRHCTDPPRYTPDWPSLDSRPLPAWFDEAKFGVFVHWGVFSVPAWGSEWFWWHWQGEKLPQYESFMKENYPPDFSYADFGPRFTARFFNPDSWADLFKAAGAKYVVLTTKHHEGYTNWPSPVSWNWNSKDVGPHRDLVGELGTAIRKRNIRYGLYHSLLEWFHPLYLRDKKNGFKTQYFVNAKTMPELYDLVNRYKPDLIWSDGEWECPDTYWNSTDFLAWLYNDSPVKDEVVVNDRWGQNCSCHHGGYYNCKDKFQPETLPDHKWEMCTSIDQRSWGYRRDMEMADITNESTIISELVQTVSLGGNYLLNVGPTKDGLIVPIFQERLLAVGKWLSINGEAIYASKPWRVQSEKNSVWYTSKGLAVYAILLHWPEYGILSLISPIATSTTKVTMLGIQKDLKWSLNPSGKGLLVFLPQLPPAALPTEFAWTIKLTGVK
Source text: as §1, §2

[5] = tested on: A2780; test: MTT cell growth inhibition: A2780; assay type: cell-based; details: A2780 ovarian carcinoma, 25 µM, 72 h, MTT
Method: as §3, §4

[6] = biological target: rice α-glucosidase (Oryza sativa subsp. japonica, UniProt Q653V7); test: Glycosidase inhibition, laboratory 1: rice α-glucosidase; assay type: biochemical; details: methanol
[7] = biological target: T3, E. coli β-glucuronidase (Escherichia coli, UniProt P05804); test: Glycosidase inhibition, laboratory 1: E. coli β-glucuronidase; assay type: biochemical; details: E. coli β-glucuronidase, methanol
T3 construct: purchased Sigma-Aldrich Co
Source text: as §1, §2

[8] = tested on: A431; test: MTT cell growth inhibition: A431; assay type: cell-based; details: A431 skin carcinoma, 25 µM, 72 h, MTT
Method: as §3, §4

[9] = tested on: bovine liver β-glucuronidase; test: Glycosidase inhibition, laboratory 1: bovine liver β-glucuronidase; assay type: biochemical; details: methanol
Source text: as §1, §2

[10] = tested on: bovine liver β-glucuronidase; test: Glycosidase inhibition, laboratory 2: bovine liver β-glucuronidase; assay type: biochemical; details: water
Method: (§5) All enzymes and para-nitrophenyl substrates were purchased from Sigma. Enzymes were assayed at 27 °C in 0.1 M citric acid/0.2 M disodium hydrogen phosphate buffers at the optimum pH for the enzyme. The incubation mixture consisted of 10 μL enzyme solution, 10 μL of 1 mg/mL aqueous solution of extract and 50 μL of the appropriate 5 mM para-nitrophenyl substrate made up in buffer at the optimum pH for the enzyme. The reactions were stopped by addition of 70 μL 0.4 M glycine (pH 10.4) during the exponential phase of the reaction, which had been determined at the beginning using uninhibited assays in which water replaced inhibitor. Final absorbances were read at 405 nm using a Versamax microplate reader (Molecular Devices). Assays were carried out in triplicate, and the values given are means of the three replicates per assay. All reactions run in water.

[11] = tested on: almond β-glucosidase; test: Glycosidase inhibition, laboratory 1: almond β-glucosidase; assay type: biochemical; details: methanol
Source text: as §1, §2

[12] = tested on: bovine kidney N-acetyl-β-glucosaminidase; test: Glycosidase inhibition, laboratory 2: N-acetyl-β-glucosaminidase; assay type: biochemical; details: water
Method: as §5

[13] = tested on: HT29; test: MTT cell growth inhibition: HT29; assay type: cell-based; details: 72 h
Method: as §3, §4

T1 sequence (Q42656 16-378): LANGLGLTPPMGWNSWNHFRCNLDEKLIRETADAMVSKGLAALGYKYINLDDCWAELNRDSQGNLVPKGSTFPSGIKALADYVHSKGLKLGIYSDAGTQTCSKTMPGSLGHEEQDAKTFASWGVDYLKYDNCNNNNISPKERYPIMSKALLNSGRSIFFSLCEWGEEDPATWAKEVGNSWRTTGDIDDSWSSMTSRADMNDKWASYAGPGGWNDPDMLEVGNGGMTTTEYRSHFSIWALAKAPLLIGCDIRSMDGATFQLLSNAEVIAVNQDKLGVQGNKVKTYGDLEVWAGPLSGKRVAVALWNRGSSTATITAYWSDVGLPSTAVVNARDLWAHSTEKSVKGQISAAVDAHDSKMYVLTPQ
rice α-glucosidase, sequence (Q653V7 34-885): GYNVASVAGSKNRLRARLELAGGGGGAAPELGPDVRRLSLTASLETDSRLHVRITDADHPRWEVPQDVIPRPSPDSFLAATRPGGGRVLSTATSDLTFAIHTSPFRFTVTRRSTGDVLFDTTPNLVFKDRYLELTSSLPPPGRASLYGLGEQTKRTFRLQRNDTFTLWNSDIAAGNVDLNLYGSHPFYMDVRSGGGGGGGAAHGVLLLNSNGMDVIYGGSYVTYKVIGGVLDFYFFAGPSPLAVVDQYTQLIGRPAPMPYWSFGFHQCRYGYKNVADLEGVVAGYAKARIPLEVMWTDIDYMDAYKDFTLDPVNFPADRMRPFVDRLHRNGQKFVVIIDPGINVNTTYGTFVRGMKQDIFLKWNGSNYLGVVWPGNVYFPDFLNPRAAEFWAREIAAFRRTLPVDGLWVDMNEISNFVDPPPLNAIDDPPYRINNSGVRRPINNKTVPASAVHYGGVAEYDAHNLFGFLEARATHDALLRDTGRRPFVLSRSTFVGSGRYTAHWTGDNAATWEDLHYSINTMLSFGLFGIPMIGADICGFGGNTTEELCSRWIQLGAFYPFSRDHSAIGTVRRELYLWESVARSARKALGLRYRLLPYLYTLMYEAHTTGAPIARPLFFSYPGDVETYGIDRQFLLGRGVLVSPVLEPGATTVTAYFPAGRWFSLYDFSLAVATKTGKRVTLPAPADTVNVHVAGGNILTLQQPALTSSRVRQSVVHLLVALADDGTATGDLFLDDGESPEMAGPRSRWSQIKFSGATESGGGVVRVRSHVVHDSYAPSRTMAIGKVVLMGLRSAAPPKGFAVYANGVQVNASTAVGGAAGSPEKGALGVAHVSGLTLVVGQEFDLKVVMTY
T3 sequence (P05804 whole entry): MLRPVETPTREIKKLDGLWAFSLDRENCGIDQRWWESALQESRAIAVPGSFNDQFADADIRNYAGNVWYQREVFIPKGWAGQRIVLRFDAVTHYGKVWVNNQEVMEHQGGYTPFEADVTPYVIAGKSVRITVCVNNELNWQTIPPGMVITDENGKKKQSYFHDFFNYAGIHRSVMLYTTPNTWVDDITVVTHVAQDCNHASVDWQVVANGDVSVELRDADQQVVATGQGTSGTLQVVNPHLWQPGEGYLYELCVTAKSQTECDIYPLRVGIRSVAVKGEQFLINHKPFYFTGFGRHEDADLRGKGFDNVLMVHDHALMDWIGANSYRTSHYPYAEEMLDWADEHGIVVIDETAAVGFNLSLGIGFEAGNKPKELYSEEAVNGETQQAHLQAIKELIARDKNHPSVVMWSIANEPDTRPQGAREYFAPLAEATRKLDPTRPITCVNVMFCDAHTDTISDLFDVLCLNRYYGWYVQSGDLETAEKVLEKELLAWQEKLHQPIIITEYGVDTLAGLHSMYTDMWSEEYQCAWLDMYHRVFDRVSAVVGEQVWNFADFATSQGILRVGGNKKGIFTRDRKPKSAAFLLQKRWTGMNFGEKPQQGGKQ

With `CC1(C)OB(c2ccc(NC(=O)c3cc(Cl)c(Cl)c(Cl)c3Cl)cc2)OC1(C)C` [para 5, 2,3,4,5-tetrachloro-N-(4-(4,4,5,5-tetramethyl-1,3,2-dioxaborolan-2-yl)phenyl)benzamide] as the compound, how does the “inhibition % at 100 μM” value ([1]; 100 μM) read?
The value was “^aNI ^b (0%)”.

What about the inhibition at 25 µM ([2]; Homo sapiens, U-87 MG, read-out: Percentage (%) Cell Growth Inhibition in response to 25 µM of Drug) of the same compound?
The inhibition at 25 µM was 21 ± 16%.

And the inhibition at 100 µM ([3]; 100 μM)?
Its inhibition at 100 µM is 35.8%.

What about the inhibition at 100 µM ([4]; 100 μM) of the same compound?
Its inhibition at 100 µM is 5.1%.

What about the inhibition at 25 µM ([5]; Homo sapiens, read-out: Percentage (%) Cell Growth Inhibition in response to 25 µM of Drug) of the same compound?
Its inhibition at 25 µM is 50 ± 1%.

And the inhibition at 100 µM ([6]; 100 μM)?
Its inhibition at 100 µM is 0%.

And the inhibition at 100 µM ([7]; 100 μM, read-out: inhibition % at 100 μM)?
Its inhibition at 100 µM is 45.5%.

And the inhibition at 25 µM ([8]; Homo sapiens, A-431, read-out: Percentage (%) Cell Growth Inhibition in response to 25 µM of Drug)?
Its inhibition at 25 µM is 64 ± 4%.

What about the “inhibition % at 100 μM” value ([9]; 100 μM) of the same compound?
Its value is “^aNI ^b (36.5%)”.

And the “% inhibition at ~400 μM” value [10]?
Its value is −2.2%.

And the “inhibition % at 100 μM” value ([11]; 100 μM)?
Its value is “^aNI ^b (17.1%)”.

What about the “% inhibition at ~400 μM” value [12] of the same compound?
The value was 20.6%.

What about the inhibition at 25 µM ([13]; Homo sapiens, HT-29, HT29 colon carcinoma, read-out: Percentage (%) Cell Growth Inhibition in response to 25 µM of Drug) of the same compound?
Its inhibition at 25 µM is 69 ± 7%.

With “Borocaptate sodium [BSH, reference compound]” as the compound, how does the “inhibition % at 1000 μM” value ([1]; 1000 μM) read?
The value was “^aNI ^b (4.2%)”.

And the “Percentage (%) Cell Growth Inhibition in response to 25 µM of Drug” value (“Percentage (%) Cell Growth Inhibition” below) [2]?
The value was <0%.

What about the “inhibition % at 1000 μM” value ([3]; 1000 μM) of the same compound?
Its value is “^aNI ^b (12.3%)”.

And the “inhibition % at 1000 μM” value ([4]; 1000 μM)?
Its value is “^aNI ^b (0%)”.

And the “Percentage (%) Cell Growth Inhibition” value [5]?
The value was 2 ± 5%.

And the “inhibition % at 1000 μM” value ([6]; 1000 μM)?
Its value is “^aNI ^b(0%)”.

And the “inhibition % at 1000 μM” value ([7]; 1000 μM)?
The value was “^aNI ^b (6%)”.

And the “Percentage (%) Cell Growth Inhibition” value [8]?
The value was <0%.

And the “inhibition % at 1000 μM” value ([9]; 1000 μM)?
Its value is “^aNI ^b (19.6%)”.

What about the “% inhibition at ~400 μM” value [10] of the same compound?
Its value is 31.6%.

And the “inhibition % at 1000 μM” value ([11]; 1000 μM)?
The value was “^aNI ^b (0%)”.

What about the “% inhibition at ~400 μM” value [12] of the same compound?
Its value is 37.1%.

What about the “Percentage (%) Cell Growth Inhibition” value ([13]; HT29 colon carcinoma) of the same compound?
The value was 3 ± 2%.
